# From patent US20120130104A1, “CYCLOPROPENES-[…] TO CONTROL RIPENING PROCESSES OF AGRICULTURAL PRODUCTS” (priority 2005, published 2012)
# System: tomatoes
# Experiment: Inhibitory effects of cyclopropene compounds on tomato ripening
# Assay type: in vivo
# Settings: for Degree of ripening 0, number of tomatoes, Treated / Degree of ripening 1, number of tomatoes, Treated / Degree of ripening 2, number of tomatoes, Treated / Degree of ripening 3, number of tomatoes, Treated / Degree of ripening 4, number of tomatoes, Treated / Degree of ripening 5, number of tomatoes, Treated: scale 0 = no red color, 5 = completely ripened to dark red
# Experimental: A cube (60×60×60 cm) was fabricated using a transparent acrylic plastic plate. The upper surface of the cube was equipped with two valves for air-injection and exhaust. Immediately prior to beginning of the red ripening stages, 20 blue tomatoes were harvested and divided into a treatment group and a control group which were then placed in acrylic plastic vessels, respectively. Among two plastic vessels, the treatment group was treated with 1-methylcyclopropene generated by injection of 3 mL diglyme solution containing 0.2 g of 1-methyl-1-(methanesulfonyloxy)-2-(trimethylsilyl)cyclopropane {synthesized in Section (2) of Example 5} into a column packed with 5 g of 15% Bu4NF coated Silica gel {prepared in Section (2) of Example 4} while maintaining the air flow at a flow rate of 2 L/min using a small compressor (see FIG. 3).
# Tomatoes of the treatment group were treated for 1 hour according to the above-mentioned method and were then left for 12 hours while closing the valve. And then, tomatoes of the treatment group and tomatoes of the control group were observed on a progress of turning into red color. Based on the observation results, the ripening progress of tomatoes was evaluated.
# Herein, the degree of ripening of tomatoes was classified on a scale of 0 to 5:
# 0: No red color similar to when completely green tomatoes were harvested 5: Completely ripened to dark red 1 to 4: Red color between the scale of 0 and 5
# Therefore, the higher value represents the redder tomato color.
smiles,measurement,setting,value
CC1=CC1 [1-methylcyclopropene],inhibitory effects on the ripening process of tomatoes,1-methylcyclopropene generated by the device,significant inhibitory effects
same,"Degree of ripening 0, number of tomatoes, Treated",Day 0,10
same,"Degree of ripening 1, number of tomatoes, Treated",Day 0,0
same,"Degree of ripening 2, number of tomatoes, Treated",Day 0,0
same,"Degree of ripening 3, number of tomatoes, Treated",Day 0,0
same,"Degree of ripening 4, number of tomatoes, Treated",Day 0,0
same,"Degree of ripening 5, number of tomatoes, Treated",Day 0,0
same,"Degree of ripening 0, number of tomatoes, Treated",Day 1,10
same,"Degree of ripening 1, number of tomatoes, Treated",Day 1,0
same,"Degree of ripening 2, number of tomatoes, Treated",Day 1,0
same,"Degree of ripening 3, number of tomatoes, Treated",Day 1,0
same,"Degree of ripening 4, number of tomatoes, Treated",Day 1,0
same,"Degree of ripening 5, number of tomatoes, Treated",Day 1,0
same,"Degree of ripening 0, number of tomatoes, Treated",Day 2,10
same,"Degree of ripening 1, number of tomatoes, Treated",Day 2,0
same,"Degree of ripening 2, number of tomatoes, Treated",Day 2,0
same,"Degree of ripening 3, number of tomatoes, Treated",Day 2,0
same,"Degree of ripening 4, number of tomatoes, Treated",Day 2,0
same,"Degree of ripening 5, number of tomatoes, Treated",Day 2,0
same,"Degree of ripening 0, number of tomatoes, Treated",Day 3,9
same,"Degree of ripening 1, number of tomatoes, Treated",Day 3,1
same,"Degree of ripening 2, number of tomatoes, Treated",Day 3,0
same,"Degree of ripening 3, number of tomatoes, Treated",Day 3,0
same,"Degree of ripening 4, number of tomatoes, Treated",Day 3,0
same,"Degree of ripening 5, number of tomatoes, Treated",Day 3,0
same,"Degree of ripening 0, number of tomatoes, Treated",Day 4,8
same,"Degree of ripening 1, number of tomatoes, Treated",Day 4,1
same,"Degree of ripening 2, number of tomatoes, Treated",Day 4,1
same,"Degree of ripening 3, number of tomatoes, Treated",Day 4,0
same,"Degree of ripening 4, number of tomatoes, Treated",Day 4,0
same,"Degree of ripening 5, number of tomatoes, Treated",Day 4,0
same,"Degree of ripening 0, number of tomatoes, Treated",Day 5,8
same,"Degree of ripening 1, number of tomatoes, Treated",Day 5,1
same,"Degree of ripening 2, number of tomatoes, Treated",Day 5,0
same,"Degree of ripening 3, number of tomatoes, Treated",Day 5,1
same,"Degree of ripening 4, number of tomatoes, Treated",Day 5,0
same,"Degree of ripening 5, number of tomatoes, Treated",Day 5,0
same,"Degree of ripening 0, number of tomatoes, Treated",Day 6,6
same,"Degree of ripening 1, number of tomatoes, Treated",Day 6,2
same,"Degree of ripening 2, number of tomatoes, Treated",Day 6,1
same,"Degree of ripening 3, number of tomatoes, Treated",Day 6,0
same,"Degree of ripening 4, number of tomatoes, Treated",Day 6,1
same,"Degree of ripening 5, number of tomatoes, Treated",Day 6,0
same,"Degree of ripening 0, number of tomatoes, Treated",Day 7,6
same,"Degree of ripening 1, number of tomatoes, Treated",Day 7,2
same,"Degree of ripening 2, number of tomatoes, Treated",Day 7,1
same,"Degree of ripening 3, number of tomatoes, Treated",Day 7,0
same,"Degree of ripening 4, number of tomatoes, Treated",Day 7,0
same,"Degree of ripening 5, number of tomatoes, Treated",Day 7,1
same,"Degree of ripening 0, number of tomatoes, Treated",Day 8,5
same,"Degree of ripening 1, number of tomatoes, Treated",Day 8,2
same,"Degree of ripening 2, number of tomatoes, Treated",Day 8,1
same,"Degree of ripening 3, number of tomatoes, Treated",Day 8,1
same,"Degree of ripening 4, number of tomatoes, Treated",Day 8,0
same,"Degree of ripening 5, number of tomatoes, Treated",Day 8,1
same,"Degree of ripening 0, number of tomatoes, Treated",Day 9,2
same,"Degree of ripening 1, number of tomatoes, Treated",Day 9,3
same,"Degree of ripening 2, number of tomatoes, Treated",Day 9,2
same,"Degree of ripening 3, number of tomatoes, Treated",Day 9,1
same,"Degree of ripening 4, number of tomatoes, Treated",Day 9,1
same,"Degree of ripening 5, number of tomatoes, Treated",Day 9,1
same,"Degree of ripening 0, number of tomatoes, Treated",Day 10,1
same,"Degree of ripening 1, number of tomatoes, Treated",Day 10,1
same,"Degree of ripening 2, number of tomatoes, Treated",Day 10,3
same,"Degree of ripening 3, number of tomatoes, Treated",Day 10,2
same,"Degree of ripening 4, number of tomatoes, Treated",Day 10,1
same,"Degree of ripening 5, number of tomatoes, Treated",Day 10,2
same,full ripening of tomatoes of the treatment group,even after 10 days,most of them did not exhibit full ripening
same,time after which tomatoes of the treatment group began the ripening process,"treatment group, control group began to ripen after 1 day",about 3 days
